Our source for the Ki values is patent publication US7557101B2, “4,5,6,7-tetrahydro-thieno[3,2-c] pyridine derivatives” (Hoffman-La Roche Inc., priority 2006, dated 2009).

Each structure is given as a SMILES string.

This test concerns the target T1, human H3R (Homo sapiens, UniProt Q9Y5N1).
T1 construct: expressed in transfected cells; host or cells: CHO cells
The experiment in a line: Competition binding assay with 3H-(R)α-methylhistamine on membranes of the human H3R-CHO cell line. Particulars: competition with 3H(R)α-methylhistamine (1 nM), Ki calculated from IC50 by Cheng-Prusoff. The protocol: Binding Assay with ^3H—(R)α-methylhistamine
Saturation binding experiments were performed using HR3-(CHO membranes prepared as described in Takahashi, K, Tokita, S., Kotani, H. (2003) J. Pharmacol. Exp. Therapeutics 307, 213-218.
An appropriate amount of membrane (60 to 80 μg protein/well) was incubated with increasing concentrations of ^3H(R)α-Methylhistamine di-hydrochloride (0.10 to 10 nM). Non specific binding was determined using a 200 fold excess of cold (R)α-Methylhistamine dihydrobromide (500 nM final concentration). The incubation was carried out at room temperature (in deep-well plates shaking for three hours). The final volume in each well was 250 μl. The incubation was followed by rapid filtration on GF/B filters (pre-soaked with 100 μl of 0.5% PEI in Tris 50 mM shaking at 200 rpm for two hours). The filtration was made using a cell-harvester and the filter plates were then washed five times with ice cold washing buffer containing 0.5 M NaCl. After harvesting, the plates were dried at 55° C. for 60 min, then we added scintillation fluid (Microscint 40, 40 microl in each well) and the amount of radioactivity on the filter was determined in Packard top-counter after shaking the plates for two hours at 200 rpm at room temperature.
Binding Buffer: 50 mM Tris-HCl pH 7.4 and 5 mM MgCl2×6H2O pH 7.4. Washing Buffer: 50 mM Tris-HCl pH 7.4 and 5 mM MgCl2×6H2O and 0.5 M NaCl pH 7.4.
Indirect measurement of affinity of H3R inverse agonists: twelve increasing concentrations (ranging from 10 μM to 0.3 nM) of the selected compounds were always tested in competition binding experiments using membrane of the human H3R—CHO cell line. An appropriate amount of protein, e.g. approximately 500 cpm binding of RAMH at Kd, were incubated for 1 hour at room temperature in 250 μl final volume in 96-well plates in presence of ^3H(R)α-methylhistamine (1 nM final concentration=Kd). Non-specific binding was determined using a 200 fold excess of cold (R)α-methylhistamine dihydrobromide.
All compounds were tested at a single concentration in duplicate. […] The concentration at which 50% inhibition of the radioligand ^3H(R)α-methylhistamine is obtained (the IC50) is determined from the linear regression of a plot of the logarithm of the concentration versus percent inhibition measured for the different concentrations. Ki's were calculated from IC50 based on Cheng-Prusoff equation (Cheng, Y, Prusoff, W H (1973) Biochem Pharmacol 22, 3099-3108): Ki=IC50/[1+D/Kd] wherein D is the concentration of the radioligand and Kd is the binding constant for the radioligand binding to the receptor under the conditions used in the competition experiment.

T1 sequence (Q9Y5N1 whole entry): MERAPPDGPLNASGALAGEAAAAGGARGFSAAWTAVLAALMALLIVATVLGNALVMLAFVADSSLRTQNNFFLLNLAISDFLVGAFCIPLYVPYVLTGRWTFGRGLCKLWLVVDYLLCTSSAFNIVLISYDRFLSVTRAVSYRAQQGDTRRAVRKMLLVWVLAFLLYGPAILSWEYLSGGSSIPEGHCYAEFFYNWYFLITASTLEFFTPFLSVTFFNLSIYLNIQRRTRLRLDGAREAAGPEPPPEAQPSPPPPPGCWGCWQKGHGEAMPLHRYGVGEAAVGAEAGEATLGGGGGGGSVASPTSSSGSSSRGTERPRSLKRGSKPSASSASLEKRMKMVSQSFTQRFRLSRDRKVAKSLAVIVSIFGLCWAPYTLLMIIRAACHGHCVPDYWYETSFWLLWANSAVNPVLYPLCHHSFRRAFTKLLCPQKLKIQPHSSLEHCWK

Usually Ki stands for a measure of affinity in units of concentration, obtained from inhibition or displacement. `O=C(N1CCOCC1)N1CCc2sc(OCCCN3CCCCC3)cc2C1` [Example 1, Morpholin-4-yl-[2-(3-piperidin-1-yl-propoxy)-6,7-dihydro-4H-thieno[3,2-c]pyridin-5-yl]-methanone]: the Ki was 35.7 nM.
In the case of `CCCC(=O)N1CCc2sc(OCCCN3CCCCC3)cc2C1` [Example 33, 1-[2-(3-piperidin-1-yl-propoxy)-6,7-dihydro-4H-thieno[3,2-c]pyridin-5-yl]-butan-1-one], the Ki was 44.4 nM.
For `O=C(NCc1ccccc1)N1CCc2sc(OCCCN3CCCC3)cc2C1` [Example 48, 2-(3-pyrrolidin-1-yl-propoxy)-6,7-dihydro-4H-thieno[3,2-c]pyridine-5-carboxylic acid benzylamide], the Ki was 31.7 nM.
As to `Cc1ccccc1S(=O)(=O)N1CCc2sc(OCCCN3CCCC3)cc2C1` [Example 56, 2-(3-pyrrolidin-1-yl-propoxy)-5-(toluene-2-sulfonyl)-4,5,6,7-tetrahydro-thieno[3,2-c]pyridine], the inhibition constant Ki is 27.3 nM.
As for `CC1CCC(CC(=O)N2CCc3sc(OC4CCN(C(C)C)C4)cc3C2)CC1` (centres unmarked) [Example 90, 1-[2-(1-isopropyl-pyrrolidin-3-yloxy)-6,7-dihydro-4H-thieno[3,2-c]pyridin-5-yl]-2-(4-methyl-cyclohexyl)-ethanone], the figure is 21.7 nM.
